Measured values published in US20170216219A1, “THERAPEUTIC NANOPARTICLES FOR ACCUMULATION IN THE BRAIN” (UNIVERSITY OF GEORGIA RESEARCH FOUNDATION, INC., priority 2014, published 2017).

Tests used:
Type in all cases: cell-based, Human
[1] = tested on: LPS stimulated NSCs; test: Anti-inflammatory properties in LPS stimulated NSCs (cytokine ELISA); conditions: LPS 100 ng/mL 36 h, 1 μM
From the text: Immunosuppressant corticoid based rugs such as prednisone can exert biphasic effects on neuronal mitochondrial dynamics. A low level of prednisone and chronic high levels can attenuate various aspects of mitochondrial function. […] Inflammatory cytokines like TNF-α and IL-6 are closely linked to TBI and these cytokines have a negative effect on damaged tissue. Therefore limiting inflammatory cytokine activity is of major benefit in reducing TBI tissue damage. We used lipopolysaccharide (LPS) to stimulate TNF-α and IL-6 production in NSCs to understand the anti-inflammatory effects of prednisone-NPs and CoQ10-NPs in an in vitro model (FIG. 6C). […] The T and NT NPs containing prednisone reduced the levels of IL-6 in the LPS stimulated NSCs. The addition of T or NT-CoQ10-NPs to prednisone NPs increased the efficiency of IL-6 reduction. […] IL-10 is primarily an anti-inflammatory cytokine with potent inhibitory effects on several pro-inflammatory mediators. […] IL-12 has immune-inflammatory responses in the brain; however the consequences of local production of IL-12 on spontaneous immune responses are unknown. […] The exact mechanism why only mitochondria targeted therapy produces IL-12 from the NSCs warrants further investigation.
Human induced pluripotent stem cell-derived neural stem cells (HIP™ hNSC BC1, GlobalStem®, Rockville, Md.) used for the in vitro portion of this study. NSCs were maintained on matrigel-coated tissue culture dishes in neural stem cell media composed of neural basal medium, 2% B-27 supplement, 1% non-essential amino acids, 2 mM L-alanine/L-glutamine, 1% penicillin/streptomycin, and 20 ng/mL bFGF. The media was changed every other day. When NSCs reached confluence (approximately every 4 to 5 days), cells were enzymatically passaged using Accutase and removed from the dish using a cell scrapper. Cells were split at a 1:4 ratio. […]
NSCs were plated on each well of a 12-well plate at a density of […] per well and allowed to grow overnight (NSC basal media in 200 μL). […] The absorbance was recorded at 450 nm using a BioTek Synergy HT well plate reader.

[2] = tested on: NSCs; test: Cytotoxicity by MTT assay against NSCs; conditions: concentrations used in the cytokine studies
Method: Human induced pluripotent stem cell-derived neural stem cells (HIP™ hNSC BC1, GlobalStem®, Rockville, Md.) used for the in vitro portion of this study. NSCs were maintained on matrigel-coated tissue culture dishes in neural stem cell media composed of neural basal medium, 2% B-27 supplement, 1% non-essential amino acids, 2 mM L-alanine/L-glutamine, 1% penicillin/streptomycin, and 20 ng/mL bFGF. The media was changed every other day. When NSCs reached confluence (approximately every 4 to 5 days), cells were enzymatically passaged using Accutase and removed from the dish using a cell scrapper. Cells were split at a 1:4 ratio. To prepare NSCs for MTT and ROS Reduction assays, NSCs were plated in matrigel-coated 96-well dishes at a ratio of 40,000 cells per well in neural stem cell media.
The cytotoxic behavior of all the NPs was evaluated by using the MTT assay against NSCs. Cells (40,000 cells/well) were seeded on a 96-well plate in 100 μL of NSC basal complete medium and incubated for 24 h. The cells were treated with NPs at varying concentrations (with respect to prednisone and CoQ10) and incubated at 37° C. […] The medium was removed, the cells were lysed with 100 μL of DMSO, and the absorbance of the purple formazan was recorded at 550 nm using a Bio-Tek Synergy HT microplate reader. Each well was performed in triplicate and a background reading was recorded at 800 nm.

[3] = tested on: NSCs; test: Antioxidative properties by Seahorse analyzer (OCR) in H2O2 treated NSCs; conditions: H2O2 10 μM, 1 μM with respect to CoQ10
From the text: Oxidative stress induced by the production of ROS including free radicals and peroxides is one of the major mechanisms, which leads to neuronal destruction and is closely related to apoptosis and necrosis in these cells during TBI. Mitochondria are well known to be a major source of ROS production. CoQ10 is endogenously synthesized in mammalian mitochondria, acts as both antioxidant and pro-oxidant, and is involved in shuttling electrons from complexes I or II and a number of other electron donors, including electron transfer factor, which moves electrons from fatty acid beta oxidation. CoQ10 is found in all cell and organelle membranes, where it can participate in redox shuttling. However, defects in CoQ10 biosynthesis can be found during TBI. […]
T-CoQ10-NPs, NT-CoQ10-NPs, and free CoQ10 were tested for their ability to reduce oxidative stress in NSCs. […] The cells were monitored for changes in oxygen consumption rate (OCR) with respect to time. A basal reading was acquired for 45 min and then H2O2(10 μM) was injected. The OCR was monitored for 90 min and T-CoQ10-NPs (1 μM with respect to CoQ10), NT-CoQ10-NPs (1 μM with respect to CoQ10), and free CoQ10 (1 μM) were injected. The OCR levels were then further measured for 4.5 h. As a control, cells were also monitored with no treatment or only treatment of H2O2(10 μM).

Compound | IL-10 [1] | TNF-α secretion induced by LPS [1] | cytotoxic effects (MTT) [2] | effect on H2O2 mediated oxidative stress (OCR) [3]
C[C@]12C=CC(=O)C=C1CC[C@@H]1[C@@H]2C(=O)C[C@@]2(C)[C@H]1CC[C@]2(O)C(=O)CO [prednisone] | elevated | significantly reduced | did not show any cytotoxic effects | 
COC1=C(OC)C(=O)C(C/C=C(\C)CC/C=C(\C)CC/C=C(\C)CC/C=C(\C)CC/C=C(\C)CC/C=C(\C)CC/C=C(\C)CC/C=C(\C)CC/C=C(\C)CCC=C(C)C)=C(C)C1=O [CoQ10, coenzyme Q10] | elevated |  | did not show any cytotoxic effects | less efficiency in oxidative stress reduction
